Assay results reported in US20260159527A1, “MACROCYCLIC BCL6 DEGRADERS” (DANA-FARBER CANCER INSTITUTE, INC., priority 2022, published 2026).
Where two headings read alike, the source gives them in different places. Each block holds one compound with its values, some of them ahead of it.

Assays:
[1] = from C[C@@H]1CN(c2ncc(Cl)c(Nc3cc(OCC(=O)O)c4c(c3)[nH]c(=O)n4C)n2)C[C@H](N)C1(F)F; amide bond; 14-membered ring; HATU/DIEA; DMF; 141.0 mM; 20.0 °C; 2.0 h
BCL6 = molecular target: T1, BCL6 (Homo sapiens, UniProt P41182); assay: HiBiT cellular degradation assay (Promega) in Su-DHL-4 cells; assay type: cell-based; details: concentration to reach 50% degradation; endogenous BCL6 tagged with SmBiT in Su-DHL-4 cells; 24 hr of compound treatment; relative to DMSO control
T1 construct: Endogenous BCL6 was tagged with the 11-amino acid SmBiT through CRISPR/Cas9 gene editing; endogenous in cells; host or cells: Su-DHL-4 cells, CRISPR/Cas9 knock-in single cell clone
Description: DC50 (concentration to reach 50% degradation) values were determined from a cellular degradation assay (HiBiT, Promega™) in Su-DHL-4 cells (Table 1). Endogenous BCL6 was tagged with the 11-amino acid SmBiT through CRISPR/Cas9 gene editing and single cell clone selection. After 24 hr of compound treatment, cells were lysed and incubated with LgBiT protein to reconstitute intact nanoluciferase. Substrate was then added and relative luciferase units were measured. Degradation levels for each treatment were taken as a percentage compared to the control, 100% DMSO (Prism).

[2] = snar bond, 14-membered ring, DIEA, 80.0 °C, 12.0 h
[3] = snar bond, 14-membered ring, DIEA, DMSO, 80.0 °C, 12.0 h

Compound: C[C@@H]1CN2C[C@H](NC(=O)COc3cc(cc4[nH]c(=O)n(C)c34)Nc3nc2ncc3Cl)C1(F)F
ring closure, crude yield [1]: 59%

DC50 (BCL6): 0.68 nM
Compound: CNC(=O)COc1cc2cc3cc(c2n(C)c1=O)OCCC[C@H]1CN(C[C@@H](C)C1(F)F)c1ncc(Cl)c(n1)N3 [Compound 4, 2-(((1^3S, 1^5R)-2^5-chloro-1^4,1^4-difluoro-13,41-dimethyl-4^2-oxo-4^1,4^2-dihydro-5-oxa-3-aza-4(6,8)-quinolina-2(2,4)-pyrimidina-1 (1,3)-piperidinacyclooctaphane-4^3-yl)oxy)-N-methylacetamide]
ring closure, yield after HPLC ([2]; from CNC(=O)COc1cc2cc(Nc3nc(Cl)ncc3Cl)cc(OCCC[C@H]3CNC[C@@H](C)C3(F)F)c2n(C)c1=O, DMF, 140.0 mM): 12%

DC50 (BCL6): 0.61 nM
Compound: CNC(=O)COc1cc2cc3cc(c2n(C)c1=O)OCCO[C@@H]1C[C@H](C)CN(C1)c1ncc(Cl)c(n1)N3 [Compound 6, 2-(((1^3R, 1^5S)-2^5-chloro-1^5,4^1-dimethyl-4^2-oxo-4^1, 4^2-dihydro-5,8-dioxa-3-aza-4(6.8)-quinolina-2(2,4)-pyrimidina-1 (1,3)-piperidinacyclooctaphane-4^3-yl)oxy)-N-methylacetamide]
ring closure, yield after HPLC ([2]; from CNC(=O)COc1cc2cc(Nc3nc(Cl)ncc3Cl)cc(OCCO[C@H]3CNC[C@@H](C)C3)c2n(C)c1=O, DMSO, 36.0 mM): 12%

DC50 (BCL6): 72 nM
Compound: C[C@@H]1CN2C[C@H](CCCOc3cc(cc4[nH]c(=O)n(C)c34)Nc3nc2ncc3Cl)C1(F)F [Compound 26, (1^3S,1^3R)-2^5-chloro-1^4,1^4-difluoro-1^5,4^3-dimethyl-4^2,4^3-dihydro-4 H-5-oxa-3-aza-4(6,4)-benzo[d]imidazola-2(2,4)-pyrimidina-1 (1,3)-piperidinacyclooctaphan-4^2-one]
ring closure, isolated yield ([3]; from C[C@@H]1CNC[C@H](CCCOc2cc(Nc3nc(Cl)ncc3Cl)cc3[nH]c(=O)n(C)c23)C1(F)F, 27.1 mM): 64%

DC50 (BCL6): > 400 nM
Compound: C[C@H]1CN2C[C@@H](CCCOc3cc(cc4[nH]c(=O)n(C)c34)Nc3nc2ncc3Cl)C1(F)F [Compound 27, (1^3R, 1^5S)-2^5-chloro-1^4,1^4-difluoro-1^5,4^3-dimethyl-4^2,4^3-dihydro-4^1H-5-oxa-3-aza-4(6,4)-benzo[d]imidazola-2(2,4)-pyrimidina-1 (1,3)-piperidinacyclooctaphan-4^2-one]
ring closure, isolated yield ([3]; from C[C@H]1CNC[C@@H](CCCOc2cc(Nc3nc(Cl)ncc3Cl)cc3[nH]c(=O)n(C)c23)C1(F)F, 40.6 mM): 63%
